# Reference: patent US10344060B2 (priority 2013, dated 2019)
# Molecular target: hNav1.4 (Homo sapiens, UniProt P35499)
# Assay: cell-based
# Format: cell-based
# Conditions: Table 12; PatchXpress, tonic block; read-out: PX hNav1.4 Tonic IC50
# hNav1.4, sequence (P35499 whole entry): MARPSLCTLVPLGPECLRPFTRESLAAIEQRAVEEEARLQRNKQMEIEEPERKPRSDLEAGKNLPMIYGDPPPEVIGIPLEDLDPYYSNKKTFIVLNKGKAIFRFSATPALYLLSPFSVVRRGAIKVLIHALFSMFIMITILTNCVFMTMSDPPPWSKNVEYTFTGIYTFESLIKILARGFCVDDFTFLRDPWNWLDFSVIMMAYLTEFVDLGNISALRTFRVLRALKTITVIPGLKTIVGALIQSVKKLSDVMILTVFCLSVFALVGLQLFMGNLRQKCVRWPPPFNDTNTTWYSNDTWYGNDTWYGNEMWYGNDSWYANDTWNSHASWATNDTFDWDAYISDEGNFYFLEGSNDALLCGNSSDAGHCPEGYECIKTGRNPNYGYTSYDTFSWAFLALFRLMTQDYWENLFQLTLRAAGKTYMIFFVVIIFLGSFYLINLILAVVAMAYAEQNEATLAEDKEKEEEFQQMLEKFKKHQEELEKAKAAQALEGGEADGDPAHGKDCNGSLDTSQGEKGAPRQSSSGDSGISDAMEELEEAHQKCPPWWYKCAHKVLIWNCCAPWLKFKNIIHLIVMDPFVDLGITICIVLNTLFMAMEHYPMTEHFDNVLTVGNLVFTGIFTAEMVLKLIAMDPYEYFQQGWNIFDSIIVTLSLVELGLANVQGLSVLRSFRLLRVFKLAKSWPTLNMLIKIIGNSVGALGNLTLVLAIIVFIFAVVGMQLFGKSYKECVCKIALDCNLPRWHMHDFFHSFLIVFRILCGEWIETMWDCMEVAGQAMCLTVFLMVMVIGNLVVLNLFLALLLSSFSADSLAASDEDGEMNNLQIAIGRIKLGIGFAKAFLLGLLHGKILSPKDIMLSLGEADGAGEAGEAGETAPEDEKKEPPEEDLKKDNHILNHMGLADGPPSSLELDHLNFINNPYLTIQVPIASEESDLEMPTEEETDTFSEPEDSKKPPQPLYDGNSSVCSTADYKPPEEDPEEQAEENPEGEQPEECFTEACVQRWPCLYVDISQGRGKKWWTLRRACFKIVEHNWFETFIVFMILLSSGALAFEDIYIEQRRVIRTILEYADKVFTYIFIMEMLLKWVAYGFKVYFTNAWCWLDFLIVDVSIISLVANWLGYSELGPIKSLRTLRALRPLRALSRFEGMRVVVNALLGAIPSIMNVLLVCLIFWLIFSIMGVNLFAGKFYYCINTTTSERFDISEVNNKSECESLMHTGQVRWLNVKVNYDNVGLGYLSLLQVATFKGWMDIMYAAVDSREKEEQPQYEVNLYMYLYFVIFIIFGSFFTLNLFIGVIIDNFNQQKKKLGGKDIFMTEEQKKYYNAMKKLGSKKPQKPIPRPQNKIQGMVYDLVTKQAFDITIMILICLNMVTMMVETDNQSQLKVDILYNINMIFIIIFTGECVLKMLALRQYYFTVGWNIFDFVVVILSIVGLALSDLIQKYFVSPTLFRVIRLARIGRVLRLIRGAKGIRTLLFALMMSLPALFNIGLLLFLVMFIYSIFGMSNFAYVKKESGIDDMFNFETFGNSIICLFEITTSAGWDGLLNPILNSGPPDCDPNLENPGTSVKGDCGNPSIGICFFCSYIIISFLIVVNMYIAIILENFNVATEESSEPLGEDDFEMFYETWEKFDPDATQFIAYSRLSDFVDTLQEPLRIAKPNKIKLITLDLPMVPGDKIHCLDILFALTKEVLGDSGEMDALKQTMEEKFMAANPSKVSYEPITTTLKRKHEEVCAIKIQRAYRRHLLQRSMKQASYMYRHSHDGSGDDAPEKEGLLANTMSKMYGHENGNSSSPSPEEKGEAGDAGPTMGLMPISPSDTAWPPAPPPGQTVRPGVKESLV
row,Structure (SMILES),IC50
1,C#CC[C@H](N)C(=O)NCCCC[C@@H]1NC(=O)[C@H](CCCNC(=N)N)NC(=O)[C@H](CCCCN)NC(=O)[C@H](CO)NC(=O)[C@H](CC(=O)O)NC(=O)[C@@H]2CSSC[C@@H]3NC(=O)[C@H](CCCNC(=N)N)NC(=O)[C@H](CC(C)C)NC(=O)CNC(=O)[C@H](CCC(=O)O)NC(=O)[C@H](CSSC[C@H](NC(=O)[C@H](Cc4ccc(O)cc4)NC(=O)[C@@H](N)CCC)C(=O)N[C@@H](CCC(N)=O)C(=O)N[C@@H](CCCCN)C(=O)N[C@@H](Cc4c[nH]c5ccccc45)C(=O)N[C@@H](CC(C)C)C(=O)N[C@@H](Cc4c[nH]c5ccccc45)C(=O)N[C@@H]([C@@H](C)O)C(=O)N2)NC(=O)[C@H](CSSC[C@@H](C(=O)N[C@@H](CCCNC(=N)N)C(=O)N[C@@H](CCCCN)C(=O)N[C@@H](CCC(=O)O)C(=O)N[C@H](C(N)=O)[C@@H](C)CC)NC(=O)[C@H](Cc2c[nH]c4ccccc24)NC(=O)[C@H](CC(C)C)NC(=O)[C@H](CCCCN)NC3=O)NC1=O [compound 439],300 nM

# Same assay, conditions: Table 12; ratio of PX tonic IC50 values
row,Structure (SMILES),Nav1.4/Nav1.7
1,C#CC[C@H](N)C(=O)NCCCC[C@@H]1NC(=O)[C@H](CCCNC(=N)N)NC(=O)[C@H](CCCCN)NC(=O)[C@H](CO)NC(=O)[C@H](CC(=O)O)NC(=O)[C@@H]2CSSC[C@@H]3NC(=O)[C@H](CCC(=O)O)NC(=O)[C@H](CC(C)C)NC(=O)CNC(=O)[C@H](CCC(=O)O)NC(=O)[C@H](CSSC[C@H](NC(=O)[C@H](Cc4ccc(O)cc4)NC(=O)[C@@H](N)CC#N)C(=O)N[C@@H](CCC(N)=O)C(=O)N[C@@H](CCCCN)C(=O)N[C@@H](Cc4c[nH]c5ccccc45)C(=O)N[C@@H](CCCC)C(=O)N[C@@H](Cc4c[nH]c5ccccc45)C(=O)N[C@@H]([C@@H](C)O)C(=O)N2)NC(=O)[C@H](CSSC[C@@H](C(=O)N[C@@H](CCCNC(=N)N)C(=O)N[C@@H](CCCCN)C(=O)N[C@@H](Cc2ccc(O)cc2)C(=O)N[C@H](C(N)=O)[C@@H](C)CC)NC(=O)[C@H](Cc2c[nH]c4ccccc24)NC(=O)[C@H](CC(C)C)NC(=O)[C@H](CCCCN)NC3=O)NC1=O [compound 394],19130
2,C#CC[C@@H]1NC(=O)[C@@H]2CSSC[C@H](NC(=O)[C@H](Cc3ccc(O)cc3)NC(=O)[C@@H](N)CC#N)C(=O)N[C@@H](CCC(N)=O)C(=O)N[C@@H](CCCCN)C(=O)N[C@@H](Cc3c[nH]c4ccccc34)C(=O)N[C@@H](CCCC)C(=O)N[C@@H](Cc3c[nH]c4ccccc34)C(=O)N[C@@H]([C@@H](C)O)C(=O)N[C@H]3CSSC[C@H](NC(=O)[C@H](CCC(=O)O)NC(=O)[C@H](CC(C)C)NC(=O)CNC1=O)C(=O)N[C@@H](CCCCN)C(=O)N[C@@H](CC(C)C)C(=O)N[C@@H](Cc1c[nH]c4ccccc14)C(=O)N[C@H](C(=O)N[C@@H](CCCNC(=N)N)C(=O)N[C@@H](CCCCN)C(=O)N[C@@H](Cc1ccc(O)cc1)C(=O)N[C@H](C(N)=O)[C@@H](C)CC)CSSC[C@H](NC(=O)[C@H](C)NC(=O)[C@H](CCCNC(=N)N)NC(=O)[C@H](CCCCN)NC(=O)[C@H](CO)NC(=O)[C@H](CC(=O)O)NC3=O)C(=O)N2 [compound 397],20
3,C#CC[C@H](N)C(=O)NCCCC[C@@H]1NC(=O)[C@H](CCCNC(=N)N)NC(=O)[C@H](CCCCN)NC(=O)[C@H](CO)NC(=O)[C@H](CC(=O)O)NC(=O)[C@@H]2CSSC[C@@H]3NC(=O)[C@H](CCCNC(=N)N)NC(=O)[C@H](CC(C)C)NC(=O)CNC(=O)[C@H](CCC(=O)O)NC(=O)[C@H](CSSC[C@H](NC(=O)[C@H](Cc4ccc(O)cc4)NC(=O)[C@@H](N)CCC)C(=O)N[C@@H](CCC(N)=O)C(=O)N[C@@H](CCCCN)C(=O)N[C@@H](Cc4c[nH]c5ccccc45)C(=O)N[C@@H](CC(C)C)C(=O)N[C@@H](Cc4c[nH]c5ccccc45)C(=O)N[C@@H]([C@@H](C)O)C(=O)N2)NC(=O)[C@H](CSSC[C@@H](C(=O)N[C@@H](CCCNC(=N)N)C(=O)N[C@@H](CCCCN)C(=O)N[C@H](C(=O)N[C@H](C(N)=O)[C@@H](C)CC)[C@@H](C)CC)NC(=O)[C@H](Cc2c[nH]c4ccccc24)NC(=O)[C@H](CC(C)C)NC(=O)[C@H](CCCCN)NC3=O)NC1=O [compound 438],7
4,C#CC[C@H](N)C(=O)NCCOCCOCCOCCOCCC(=O)NCCCC[C@@H]1NC(=O)[C@H](CCCNC(=N)N)NC(=O)[C@H](CCCCN)NC(=O)[C@H](CO)NC(=O)[C@H](CC(=O)O)NC(=O)[C@@H]2CSSC[C@@H]3NC(=O)[C@H](CCCNC(=N)N)NC(=O)[C@H](CC(C)C)NC(=O)CNC(=O)[C@H](CCC(=O)O)NC(=O)[C@H](CSSC[C@H](NC(=O)[C@H](Cc4ccc(O)cc4)NC(=O)[C@@H](N)CCC)C(=O)N[C@@H](CCC(N)=O)C(=O)N[C@@H](CCCCN)C(=O)N[C@@H](Cc4c[nH]c5ccccc45)C(=O)N[C@@H](CCCC)C(=O)N[C@@H](Cc4c[nH]c5ccccc45)C(=O)N[C@@H]([C@@H](C)O)C(=O)N2)NC(=O)[C@H](CSSC[C@@H](C(=O)N[C@@H](CCCNC(=N)N)C(=O)N[C@@H](CCCCN)C(=O)N[C@H](C(=O)N[C@H](C(N)=O)[C@@H](C)CC)[C@@H](C)CC)NC(=O)[C@H](Cc2c[nH]c4ccccc24)NC(=O)[C@H](CC(C)C)NC(=O)[C@H](CCCCN)NC3=O)NC1=O [compound 432],12

# Same assay, conditions: Table 13; ratio of PX tonic IC50 values
row,Structure (SMILES),Nav1.4/Nav1.7
1,CCCC[C@@H]1NC(=O)[C@H](Cc2c[nH]c3ccccc23)NC(=O)[C@H](CCCCN)NC(=O)[C@H](CCC(N)=O)NC(=O)[C@@H](NC(=O)[C@H](Cc2ccc(O)cc2)NC(=O)[C@@H](N)Cc2cn(CCOCCOCCOCCOCCOCCOCCOCCOCCOCCOCCN)nn2)CSSC[C@@H]2NC(=O)[C@@H]3CSSC[C@@H](C(=O)N[C@@H](CCCNC(=N)N)C(=O)N[C@@H](CCCCN)C(=O)N[C@@H](CCC(=O)O)C(=O)N[C@H](C(N)=O)[C@@H](C)CC)NC(=O)[C@H](Cc4c[nH]c5ccccc45)NC(=O)[C@H](CC(C)C)NC(=O)[C@H](CCCCN)NC(=O)[C@H](CSSC[C@H](NC(=O)[C@H]([C@@H](C)O)NC(=O)[C@H](Cc4c[nH]c5ccccc45)NC1=O)C(=O)N[C@@H](CC(=O)O)C(=O)N[C@@H](CO)C(=O)N[C@@H](CCCCN)C(=O)N[C@@H](CCCNC(=N)N)C(=O)N[C@@H](C)C(=O)N3)NC(=O)[C@H](CCCNC(=N)N)NC(=O)[C@H](CC(C)C)NC(=O)CNC(=O)[C@H](CCC(=O)O)NC2=O [compound 883],120
2,CCCC[C@@H]1NC(=O)[C@H](Cc2c[nH]c3ccccc23)NC(=O)[C@H](CCCCN)NC(=O)[C@H](CCC(N)=O)NC(=O)[C@@H](NC(=O)[C@H](Cc2ccc(O)cc2)NC(=O)[C@@H](N)Cc2cn(CCOCCOCCOCCOCCOCCOCCOCCOCCOCCOCCOCCOCCOCCOCCOCCOCCOCCOCCOCCOCCOCCOCCOCCNC(=O)c3cc(CN)cc(C(=O)NCCOCCOCCOCCOCCOCCOCCOCCOCCOCCOCCOCCOCCOCCOCCOCCOCCOCCOCCOCCOCCOCCOCCOCCn4cc(C[C@H](N)C(=O)N[C@@H](Cc5ccc(O)cc5)C(=O)N[C@H]5CSSC[C@@H]6NC(=O)[C@@H]7CSSC[C@@H](C(=O)N[C@@H](CCCNC(=N)N)C(=O)N[C@@H](CCCCN)C(=O)N[C@@H](CCC(=O)O)C(=O)N[C@H](C(N)=O)[C@@H](C)CC)NC(=O)[C@H](Cc8c[nH]c9ccccc89)NC(=O)[C@H](CC(C)C)NC(=O)[C@H](CCCCN)NC(=O)[C@H](CSSC[C@H](NC(=O)[C@H]([C@@H](C)O)NC(=O)[C@H](Cc8c[nH]c9ccccc89)NC(=O)[C@H](CCCC)NC(=O)[C@H](Cc8c[nH]c9ccccc89)NC(=O)[C@H](CCCCN)NC(=O)[C@H](CCC(N)=O)NC5=O)C(=O)N[C@@H](CC(=O)O)C(=O)N[C@@H](CO)C(=O)N[C@@H](CCCCN)C(=O)N[C@@H](CCCNC(=N)N)C(=O)N[C@@H](C)C(=O)N7)NC(=O)[C@H](CCCNC(=N)N)NC(=O)[C@H](CC(C)C)NC(=O)CNC(=O)[C@H](CCC(=O)O)NC6=O)nn4)c3)nn2)CSSC[C@@H]2NC(=O)[C@@H]3CSSC[C@@H](C(=O)N[C@@H](CCCNC(=N)N)C(=O)N[C@@H](CCCCN)C(=O)N[C@@H](CCC(=O)O)C(=O)N[C@H](C(N)=O)[C@@H](C)CC)NC(=O)[C@H](Cc4c[nH]c5ccccc45)NC(=O)[C@H](CC(C)C)NC(=O)[C@H](CCCCN)NC(=O)[C@H](CSSC[C@H](NC(=O)[C@H]([C@@H](C)O)NC(=O)[C@H](Cc4c[nH]c5ccccc45)NC1=O)C(=O)N[C@@H](CC(=O)O)C(=O)N[C@@H](CO)C(=O)N[C@@H](CCCCN)C(=O)N[C@@H](CCCNC(=N)N)C(=O)N[C@@H](C)C(=O)N3)NC(=O)[C@H](CCCNC(=N)N)NC(=O)[C@H](CC(C)C)NC(=O)CNC(=O)[C@H](CCC(=O)O)NC2=O [Homodimeric Conjugate No. 7],94
3,CCCC[C@@H]1NC(=O)[C@H](Cc2c[nH]c3ccccc23)NC(=O)[C@H](CCCCN)NC(=O)[C@H](CCC(N)=O)NC(=O)[C@@H](NC(=O)[C@@H](N)Cc2ccc(O)cc2)CSSC[C@@H]2NC(=O)[C@@H]3CSSC[C@@H](C(=O)N[C@@H](CCCNC(=N)N)C(=O)N[C@@H](CCCCN)C(=O)N[C@@H](CCC(=O)O)C(=O)N[C@H](C(N)=O)[C@@H](C)CC)NC(=O)[C@H](Cc4c[nH]c5ccccc45)NC(=O)[C@H](CC(C)C)NC(=O)[C@H](CCCCN)NC(=O)[C@H](CSSC[C@H](NC(=O)[C@H]([C@@H](C)O)NC(=O)[C@H](Cc4c[nH]c5ccccc45)NC1=O)C(=O)N[C@@H](CC(=O)O)C(=O)N[C@@H](CO)C(=O)N[C@@H](CCCCN)C(=O)N[C@@H](CCCNC(=N)N)C(=O)N[C@@H](C)C(=O)N3)NC(=O)[C@H](CCCNC(=N)N)NC(=O)[C@H](CC(C)C)NC(=O)CNC(=O)[C@H](Cc1cn(CCCOCCOCCOCCOCCOCCOCCOCCOCCOCCOCCN)nn1)NC2=O [compound 406],11
4,CCCC[C@@H]1NC(=O)[C@H](Cc2c[nH]c3ccccc23)NC(=O)[C@H](CCCCN)NC(=O)[C@H](CCC(N)=O)NC(=O)[C@@H](NC(=O)[C@@H](N)Cc2cn(CCCOCCOCCOCCOCCOCCOCCOCCOCCOCCOCCN)nn2)CSSC[C@@H]2NC(=O)[C@@H]3CSSC[C@@H](C(=O)N[C@@H](CCCNC(=N)N)C(=O)N[C@@H](CCCCN)C(=O)N[C@H](C(=O)N[C@H](C(N)=O)[C@@H](C)CC)[C@@H](C)CC)NC(=O)[C@H](Cc4c[nH]c5ccccc45)NC(=O)[C@H](CC(C)C)NC(=O)[C@H](CCCCN)NC(=O)[C@H](CSSC[C@H](NC(=O)[C@H]([C@@H](C)O)NC(=O)[C@H](Cc4c[nH]c5ccccc45)NC1=O)C(=O)N[C@@H](CC(=O)O)C(=O)N[C@@H](CO)C(=O)N[C@@H](CCCCN)C(=O)N[C@@H](CCCNC(=N)N)C(=O)N[C@@H](C)C(=O)N3)NC(=O)[C@H](CCC(=O)O)NC(=O)[C@H](CC(C)C)NC(=O)CNC(=O)[C@H](CCC(=O)O)NC2=O [compound 407],85
